Test system: LG0567-F671-PDC complex spheroids viability
Assay: Anticancer human tumor LG0567-F671-PDC patient-derived lung adenocarcinoma cell line growth inhibition [RAS]
Details: for IC50: curve of first compound; for viability, T/C: stronger effect = lower value; active = viability on the fitted dose curve at most 10% of control; inactive = the rest
Summary of the method: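 Agents were tested in combination matrices in half-log decrements from a top concentration at or near clinical Cmax (10 microM if undetermined). Targets were multi-cell spheroids of tumour lines plus HUVEC and MSC stromal cells.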

[1] = second compound 0.000949 µM, first compound 0.0316 µM
[2] = second compound 0.000949 µM, first compound 0.1 µM
[3] = second compound 0.000949 µM, first compound 0.316 µM
[4] = second compound 0.000949 µM, first compound 1 µM
[5] = second compound 0.000949 µM, first compound 3.16 µM
[6] = second compound 0.000949 µM, first compound 10 µM
[7] = second compound 0.003 µM, first compound 0.0316 µM
[8] = second compound 0.003 µM, first compound 0.1 µM
[9] = second compound 0.003 µM, first compound 0.316 µM
[10] = second compound 0.003 µM, first compound 1 µM
[11] = second compound 0.003 µM, first compound 3.16 µM
[12] = second compound 0.003 µM, first compound 10 µM
[13] = second compound 0.00949 µM, first compound 0.0316 µM
[14] = second compound 0.00949 µM, first compound 0.1 µM
[15] = second compound 0.00949 µM, first compound 0.316 µM
[16] = second compound 0.00949 µM, first compound 1 µM
[17] = second compound 0.00949 µM, first compound 3.16 µM
[18] = second compound 0.00949 µM, first compound 10 µM
[19] = second compound 0.03 µM, first compound 0.0316 µM
[20] = second compound 0.03 µM, first compound 0.1 µM
[21] = second compound 0.03 µM, first compound 0.316 µM
[22] = second compound 0.03 µM, first compound 1 µM
[23] = second compound 0.03 µM, first compound 3.16 µM
[24] = second compound 0.03 µM, first compound 10 µM
[25] = second compound 0.0949 µM, first compound 0.0316 µM
[26] = second compound 0.0949 µM, first compound 0.1 µM
[27] = second compound 0.0949 µM, first compound 0.316 µM
[28] = second compound 0.0949 µM, first compound 1 µM
[29] = second compound 0.0949 µM, first compound 3.16 µM
[30] = second compound 0.0949 µM, first compound 10 µM
[31] = second compound 0.3 µM, first compound 0.0316 µM
[32] = second compound 0.3 µM, first compound 0.1 µM
[33] = second compound 0.3 µM, first compound 0.316 µM
[34] = second compound 0.3 µM, first compound 1 µM
[35] = second compound 0.3 µM, first compound 3.16 µM
[36] = second compound 0.3 µM, first compound 10 µM
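Note: spheroids exposed to compound for seven days before readout.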
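Throughout, for IC50: luminescence signal used as a proxy for viable cells.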

CC(Nc1ccc2c(c1)OCCn1cc(N3C(=O)OCC3C(F)F)nc1-2)C(N)=O (stereo unspecified) + CCn1c(-c2cccnc2C(C)OC)c2c3cc(ccc31)N1CCOC(CC(NC(=O)C(C(C)C)N(C)C(=O)C3(F)CCN(C(=O)C#CC(C)(C)N(C)C)CC3)C(=O)N3CCCC(N3)C(=O)OCC(C)(C)C2)C1
< 31.6 nM: IC50 (second compound 0.000949 µM) | IC50 (second compound 0.003 µM) | IC50 (second compound 0.00949 µM) | IC50 (second compound 0.03 µM) | IC50 (second compound 0.0949 µM) | IC50 (second compound 0.3 µM)
active: viability, T/C [2] 8.72% | viability, T/C [3] 8.3% | viability, T/C [4] 7.21% | viability, T/C [5] 5.43% | viability, T/C [6] 4.31% | viability, T/C [7] 9.17% | viability, T/C [8] 8.19% | viability, T/C [9] 7.67% | viability, T/C [10] 6.15% | viability, T/C [11] 6.22% | viability, T/C [12] 4.37% | viability, T/C [14] 8.93% | viability, T/C [15] 9.05% | viability, T/C [16] 6.09% | viability, T/C [17] 5.36% | viability, T/C [18] 4.24% | viability, T/C [19] 8.43% | viability, T/C [20] 7.85% | viability, T/C [21] 6.83% | viability, T/C [22] 5.59% | viability, T/C [23] 4.63% | viability, T/C [24] 3.89% | viability, T/C [25] 7.47% | viability, T/C [26] 6.11% | viability, T/C [27] 5.42% | viability, T/C [28] 4.93% | viability, T/C [29] 3.8% | viability, T/C [30] 2.62% | viability, T/C [31] 7.06% | viability, T/C [32] 4.74% | viability, T/C [33] 5.86% | viability, T/C [34] 3.71% | viability, T/C [35] 2.8% | viability, T/C [36] 1.69%
inactive: viability, T/C [1] 10.7% | viability, T/C [13] 9.41%

CC(C)NCC(C(=O)N1CCN(c2ncnc3c2C(C)CC3O)CC1)c1ccc(Cl)cc1 (stereo unspecified) + CCn1c(-c2cccnc2C(C)OC)c2c3cc(ccc31)N1CCOC(CC(NC(=O)C(C(C)C)N(C)C(=O)C3(F)CCN(C(=O)C#CC(C)(C)N(C)C)CC3)C(=O)N3CCCC(N3)C(=O)OCC(C)(C)C2)C1
inactive: viability, T/C [1] 11.2% | viability, T/C [2] 13.7% | viability, T/C [3] 12.3% | viability, T/C [4] 12.3% | viability, T/C [5] 8.16% | viability, T/C [6] 8.26% | viability, T/C [7] 12.4% | viability, T/C [8] 11.7% | viability, T/C [9] 11.7% | viability, T/C [13] 11% | viability, T/C [14] 11.3% | viability, T/C [19] 11.5%
< 31.6 nM: IC50 (second compound 0.000949 µM) | IC50 (second compound 0.003 µM) | IC50 (second compound 0.00949 µM) | IC50 (second compound 0.03 µM) | IC50 (second compound 0.0949 µM) | IC50 (second compound 0.3 µM)
active: viability, T/C [10] 10.8% | viability, T/C [11] 8.33% | viability, T/C [12] 7.72% | viability, T/C [15] 12.6% | viability, T/C [16] 10.1% | viability, T/C [17] 8.54% | viability, T/C [18] 7.28% | viability, T/C [20] 10.2% | viability, T/C [21] 12.5% | viability, T/C [22] 8.64% | viability, T/C [23] 7.32% | viability, T/C [24] 7.5% | viability, T/C [25] 9.18% | viability, T/C [26] 10.3% | viability, T/C [27] 10.3% | viability, T/C [28] 8.97% | viability, T/C [29] 6.83% | viability, T/C [30] 6.43% | viability, T/C [31] 8.3% | viability, T/C [32] 10.2% | viability, T/C [33] 8.96% | viability, T/C [34] 6.59% | viability, T/C [35] 6.6% | viability, T/C [36] 5.25%

C=CC(=O)N1CCN(c2nc(OCC3CCCN3C)nc3c(F)c(-c4nc(N)cc(C)c4C(F)(F)F)c(Cl)cc23)C(C)C1 (stereo unspecified) + CCn1c(-c2cccnc2C(C)OC)c2c3cc(ccc31)N1CCOC(CC(NC(=O)C(C(C)C)N(C)C(=O)C3(F)CCN(C(=O)C#CC(C)(C)N(C)C)CC3)C(=O)N3CCCC(N3)C(=O)OCC(C)(C)C2)C1
< 3.16 nM: IC50 (second compound 0.000949 µM) | IC50 (second compound 0.003 µM) | IC50 (second compound 0.00949 µM) | IC50 (second compound 0.03 µM) | IC50 (second compound 0.0949 µM) | IC50 (second compound 0.3 µM)
inactive: viability, T/C (second compound 0.000949 µM, first compound 0.00316 µM) 13.9% | viability, T/C (second compound 0.000949 µM, first compound 0.01 µM) 13.6% | viability, T/C [1] 13.3% | viability, T/C [2] 14.4% | viability, T/C [3] 15.2% | viability, T/C [4] 15.5% | viability, T/C (second compound 0.003 µM, first compound 0.00316 µM) 12.5% | viability, T/C (second compound 0.003 µM, first compound 0.01 µM) 14.6% | viability, T/C [7] 13.8% | viability, T/C [8] 13.8% | viability, T/C [9] 19.5% | viability, T/C [10] 15.4% | viability, T/C (second compound 0.00949 µM, first compound 0.00316 µM) 15.2% | viability, T/C (second compound 0.00949 µM, first compound 0.01 µM) 14.1% | viability, T/C [13] 12.8% | viability, T/C [14] 14.5% | viability, T/C [15] 14.1% | viability, T/C [16] 14.4% | viability, T/C (second compound 0.03 µM, first compound 0.00316 µM) 13.6% | viability, T/C (second compound 0.03 µM, first compound 0.01 µM) 13.9% | viability, T/C [19] 14.8% | viability, T/C [20] 13.3% | viability, T/C [21] 13.4% | viability, T/C [22] 15.1% | viability, T/C (second compound 0.0949 µM, first compound 0.00316 µM) 12.6% | viability, T/C (second compound 0.0949 µM, first compound 0.01 µM) 12.8% | viability, T/C [25] 11.9% | viability, T/C [26] 12.3% | viability, T/C [27] 12.9% | viability, T/C [28] 12.4% | viability, T/C (second compound 0.3 µM, first compound 0.00316 µM) 9.04% | viability, T/C (second compound 0.3 µM, first compound 0.01 µM) 8.65% | viability, T/C [31] 10.4% | viability, T/C [32] 13.6% | viability, T/C [33] 12.6% | viability, T/C [34] 11.6%

Reference: PubChem BioAssay AID2060889 (Molecular Pharmacology Branch, DTP, NCI, 2025)
